Columns and labels:
[1] = biological target: Tartrate-resistant acid phosphatase type 5 (Homo sapiens) (UniProt P13686); assay: Tested for inhibition of human Osteoclastic acid phosphatase (OAP), purified from the spleen of a patient with hairy cell leukemia at 100 uM
Mus musculus [2] = organism: Mus musculus; assay: Compound was tested for thymidine incorporation at 10 uM concentration; assay type: functional
Mus musculus [3] = organism: Mus musculus; assay: Tested for percentage inhibition of PTH stimulated bone resorption in neonatal mouse calvaria placed in culture, at 10 uM concentration; assay type: functional
Mus musculus [4] = organism: Mus musculus; assay: Compound was tested for thymidine incorporation at 500 uM concentration using [H3 thymidine] as radioligand; assay type: functional
Mus musculus [5] = organism: Mus musculus; assay: Compound was tested for the percentage inhibition of PTH stimulated bone resorption in neonatal mouse calvaria placed in culture, at 100 uM concentration; assay type: functional
Mus musculus [6] = organism: Mus musculus; assay: Compound was tested for the percentage inhibition of PTH stimulated bone resorption in neonatal mouse calvaria placed in culture, at 500 uM concentration; assay type: functional
Mus musculus [7] = organism: Mus musculus; assay: Compound was evaluated for thymidine incorporation at 1 uM concentration using [H3 thymidine] as radioligand; assay type: functional
Mus musculus [8] = organism: Mus musculus; assay: Compound was evaluated for thymidine incorporation at 10 uM concentration using [H3 thymidine] as radioligand; assay type: functional
Mus musculus [9] = organism: Mus musculus; assay: Compound was evaluated for thymidine incorporation at 100 uM concentration using [H3 thymidine] as radioligand; assay type: functional
Mus musculus [10] = organism: Mus musculus; assay: Tested for percentage inhibition of PTH stimulated bone resorption in neonatal mouse calvaria placed in culture, at 1 uM concentration; assay type: functional
Mus musculus [11] = organism: Mus musculus; assay: Tested for percentage inhibition of PTH stimulated bone resorption in neonatal mouse calvaria placed in culture, at 100 uM concentration; assay type: functional

Tartrate-resistant acid phosphatase type 5 (Homo sapiens), sequence (P13686 whole entry, looked up): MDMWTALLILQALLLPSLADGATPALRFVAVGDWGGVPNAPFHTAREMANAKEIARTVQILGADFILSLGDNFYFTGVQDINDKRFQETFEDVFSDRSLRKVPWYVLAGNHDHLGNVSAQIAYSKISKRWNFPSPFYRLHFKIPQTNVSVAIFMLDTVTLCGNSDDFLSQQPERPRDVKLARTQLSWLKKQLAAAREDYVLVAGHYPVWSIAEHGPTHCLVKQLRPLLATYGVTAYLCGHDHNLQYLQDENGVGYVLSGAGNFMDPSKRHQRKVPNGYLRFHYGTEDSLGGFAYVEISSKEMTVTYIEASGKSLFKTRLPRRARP

| Compound | inhibition [1] | further results |
| --- | --- | --- |
| COc1ccc(CC(c2cccc3ccccc23)P(=O)(O)O)cc1 (centres undefined) | 73% |  |
| O=P(O)(O)C(Cc1ccccc1)c1ccccc1 (centres undefined) | 15% |  |
| O=P(O)(O)C(Cl)(Cl)P(=O)(O)O [CLODRONIC ACID] |  | Control (Mus musculus [2]): 104%; Inhibition (Mus musculus [3]): 95.6% |
| O=P(O)(O)C(Cc1ccc(Cl)cc1)c1cccc2ccccc12 (centres undefined) | 94% | Control (Mus musculus [4]): 76%; Inhibition (Mus musculus [5]): 31.9%; Inhibition (Mus musculus [6]): 101.8% |
| O=C(c1ccccc1)C(C(=O)c1ccccc1)(c1cccc2ccccc12)P(=O)(O)O | 96% |  |
| O=P(O)(O)C(Cc1ccc(Cl)cc1)(Cc1ccc(Cl)cc1)c1cccc2ccccc12 | 87% |  |
| Cc1ccc2ccccc2c1C(CC1CCCCC1)P(=O)(O)O (centres undefined) | 90% |  |
| O=P(O)(O)C(O)c1cccc2ccccc12 (centres undefined) | 10% |  |
| O=[N+]([O-])c1ccc(CC(c2cccc3ccccc23)P(=O)(O)O)cc1 (centres undefined) | 80% |  |
| O=P(O)(O)C(CC1CCCCC1)c1cccc2ccccc12 (centres undefined) | 73% |  |
| O=C(c1ccc2ccccc2c1)C(c1cccc2ccccc12)P(=O)(O)O (centres undefined) | 95% |  |
| Cc1ccc(CC(c2cccc3ccccc23)P(=O)(O)O)cc1 (centres undefined) | 75% |  |
| ORTHOVANADATE |  | Control (Mus musculus [7]): 127%; Control (Mus musculus [8]): 94%; Control (Mus musculus [9]): 0.4%; inhibition (Mus musculus [10]): 31.3%; inhibition (Mus musculus [3]): 72.7%; inhibition (Mus musculus [11]): 130% |
| O=P(O)(O)Cc1cccc2ccccc12 | 64% |  |
| O=P(O)(O)C(Cc1ccc(-c2ccccc2)cc1)c1cccc2ccccc12 (centres undefined) | 100% |  |
| O=P(O)(O)Cc1ccccc1 | 0% |  |
| O=P(O)(O)C(Cc1ccccc1)c1ccc2ccccc2c1 (centres undefined) | 19% |  |
| O=P(O)(O)C(Cc1ccccc1)c1cccc2ccccc12 (centres undefined) | 92% |  |
| O=P(O)(O)Cc1ccc2ccccc2c1 | 4% |  |
| Cc1ccc2ccccc2c1CP(=O)(O)O | 20% |  |
